Measured values published in ChEMBL document CHEMBL1140521, “Enhanced efficacy of 7-hydroxy-3-methoxycadalene via glycosylation in in vivo xenograft study” (Bioorg Med Chem Lett, 2007).

What was measured:
HeLa = assay: Cytotoxicity against human HeLa cells after 24 hrs by WST8 assay; assay type: functional, cell-based
A549 [1] = assay: Antitumor activity against human A549 cells xenografted athymic BALB/c mouse assessed as reduction in tumor volume at 100 mg/kg/day, po for 28 days; assay type: functional; design: scale not given: the % may be the effect or the level left
A549 [2] = assay: Cytotoxicity against human A549 cells after 24 hrs by WST8 assay; assay type: functional, cell-based; conditions: A549, 24 h

Structure (SMILES) | IC50 (HeLa) [µM] | Activity (A549 [1]) [%] | IC50 (A549 [2]) [µM]
COc1cc(C)c2cc(O[C@@H]3O[C@H](CO)[C@@H](O)[C@H](O)[C@H]3O)c(C)cc2c1C(C)C | 231 | 50 | 194
COc1cc(C)c2cc(O)c(C)cc2c1C(C)C [CADALENE] | 28.3 |  | 34.9
COc1cc(C)c2cc(OCCO[C@H]3O[C@H](CO)[C@@H](O)[C@H](O)[C@H]3O)c(C)cc2c1C(C)C | 161 | 25 | 129
